Assay [1] deals with Rattus norvegicus. The assay can be described thus: Inhibition of peripheral COMT in Wistar rat brain homogenates assessed as metanephrine formation at 3 mg/kg, po measured after 24 hrs. The class given is functional. The conditions noted are these: Liver, in the assay text read “rat liver homogenates” for “rat brain homogenates”.
Assay [2] has as its system Rattus norvegicus. Description: Inhibition of COMT in Wistar rat plasma assessed as decrease in 3-O-methyl-L-Dopa level at 3 mg/kg, po co-administered with L-dopa and benserazide measured after 24 hrs by HPLC analysis. Type of assay: functional, organism-based. Set-up: dose 3 mg/kg.
Assay [3] deals with Rattus norvegicus. The assay can be described thus: Inhibition of central COMT in Wistar rat brain homogenates assessed as metanephrine formation at 3 mg/kg, po measured up to 24 hrs.
For assay [4], the system named is Rattus norvegicus. Description: Inhibition of COMT in po dosed Wistar rat liver homogenates assessed as metanephrine formation measured up to 3 hrs relative to control. The class given is functional.
In assay [5] the test system is Rattus norvegicus. Description: Inhibition of COMT in Wistar rat plasma assessed as increase L-DOPA level at 3 mg/kg, po co-administered with L-dopa and benserazide measured after 2 hrs by HPLC analysis. The class given is functional.
Assay [6] has as its system Rattus norvegicus. Description: Inhibition of COMT in Wistar rat liver homogenates assessed as metanephrine formation at 3 mg/kg, po measured after 3 hrs relative to control; values are per cent of control.
In assay [7] the test system is Rattus norvegicus. The assay can be described thus: Inhibition of central COMT in Wistar rat brain homogenates assessed as metanephrine formation at 3 mg/kg, po measured up to 24 hrs. The class given is functional, organism-based. Further details: dose 3 mg/kg.
The nature of assay [8]: Cytotoxicity against mouse Neuro2a cells assessed as cell viability at 30 uM after 24 hrs. Particulars: N2a, read-out: Activity. Type of assay: functional.
Assay [9] has as its system Rattus norvegicus. The assay can be described thus: Inhibition of COMT in Wistar rat plasma assessed as decrease in 3-O-methyl-L-Dopa level at 3 mg/kg, po co-administered with L-dopa and benserazide measured after 2 hrs by HPLC analysis relative to control. The class given is functional.
Assay [10] deals with Rattus norvegicus. The assay can be described thus: Inhibition of peripheral COMT in Wistar rat liver homogenates assessed as metanephrine formation at 3 mg/kg, po measured after 24 hrs. Type of assay: functional.
Assay [11] relates to Rattus norvegicus. Description: Inhibition of COMT in Wistar rat liver homogenates assessed as metanephrine formation at 3 mg/kg, po measured after 1 hr. The class given is functional, organism-based. Further details: dose 3 mg/kg.
The subject of assay [12] is Rattus norvegicus. Description: Inhibition of COMT in Wistar rat liver homogenates assessed as metanephrine formation at 3 mg/kg, po measured after 3 hrs. Type of assay: functional, organism-based. Set-up: dose 3 mg/kg.
For assay [13], the system named is Rattus norvegicus. Description: Inhibition of COMT in Wistar rat plasma assessed as decrease in 3-O-methyl-L-Dopa level at 3 mg/kg, po co-administered with L-dopa and benserazide measured after 7 hrs by HPLC analysis. Type of assay: functional, organism-based. Set-up: dose 3 mg/kg.
The test system of assay [14] is Rattus norvegicus. Description: Inhibition of central COMT in Wistar rat brain homogenates assessed as metanephrine formation at 3 mg/kg, po measured after 9 hrs. The class given is functional.
Assay [15] deals with Rattus norvegicus. Description: Inhibition of COMT in Wistar rat plasma assessed as increase L-DOPA level at 3 mg/kg, po co-administered with L-dopa and benserazide measured after 7 hrs by HPLC analysis. The class given is functional.
The test system of assay [16] is Mus musculus. The assay can be described thus: Inhibition of COMT in NMRI mouse liver homogenates assessed as metanephrine formation at 3 mg/kg, po measured after 3 hrs relative to control; values are per cent of control.
Assay [17] concerns Rattus norvegicus. The assay can be described thus: Inhibition of COMT in Wistar rat brain homogenates assessed as metanephrine formation at 3 mg/kg, po measured after 3 hrs. Set-up: dose 3 mg/kg. Type of assay: functional, organism-based.
Assay [18] deals with Rattus norvegicus. Description: Inhibition of peripheral COMT in Wistar rat liver homogenates assessed as metanephrine formation at 3 mg/kg, po measured after 9 hrs.
Assay [19] has as its system Rattus norvegicus. The assay can be described thus: Inhibition of COMT in Wistar rat plasma assessed as increase L-DOPA level at 3 mg/kg, po co-administered with L-dopa and benserazide measured after 24 hrs by HPLC analysis. Type of assay: functional, organism-based. Set-up: dose 3 mg/kg.
For assay [20], the system named is Rattus norvegicus. Description: Inhibition of COMT in Wistar rat brain homogenates assessed as metanephrine formation at 3 mg/kg, po measured after 1 hr. Set-up: dose 3 mg/kg. The class given is functional, organism-based.
In assay [21] the test system is Mus musculus. Description: Inhibition of COMT in NMRI mouse liver homogenates assessed as metanephrine formation at 30 mg/kg, po measured after 6 hrs relative to control; values are per cent of control.
The species entered for assay [22] is Rattus norvegicus. The conditions noted are these: Wistar, Liver, 3 mg/kg.
Assay [23] relates to Rattus norvegicus. The assay can be described thus: Inhibition of COMT in Wistar rat plasma assessed as decrease in 3-O-methyl-L-Dopa level at 3 mg/kg, po co-administered with L-dopa and benserazide measured after 2 hrs by HPLC analysis. Type of assay: functional, organism-based. Set-up: dose 3 mg/kg.
Assay [24] deals with Rattus norvegicus. The assay can be described thus: Inhibition of central COMT in Wistar rat liver homogenates assessed as metanephrine formation at 3 mg/kg, po measured after 9 hrs. Type of assay: functional. The conditions noted are these: Brain, in the assay text read “rat brain homogenates” for “rat liver homogenates”.

These results are taken from ChEMBL document CHEMBL1156193, “Discovery of a long-acting, peripherally selective inhibitor of catechol-O-methyltransferase” (2010).

Structures are written as SMILES. Activity calls are given as the source filed them. The calls are words filed in the database; no cut-off is given here.

As usually defined, the inhibition in vivo is how much of the control response was suppressed. The ED50 is the dose at which the effect has come halfway, by size or by number of responders. For `Cc1c(Cl)c(C)[n+]([O-])c(Cl)c1-c1noc(-c2cc(O)c(O)c([N+](=O)[O-])c2)n1` [OPICAPONE], the inhibition in vivo at 3 mg/kg in the assay on Rattus norvegicus [1], in the assay on Rattus norvegicus [9] and with Rattus norvegicus [10] was 50% each time. Besides, the inhibition entry in the assay with Rattus norvegicus [2], with Rattus norvegicus [11] and in the assay on Rattus norvegicus [12] was “Active” throughout. Besides, the inhibition result in the assay on Rattus norvegicus [3] and with Rattus norvegicus [7] was “inactive” throughout. Besides, the ED50 in the assay with Rattus norvegicus [4] amounted to 1.05 mg/kg. Moreover, the “fold change (FC)” value with Rattus norvegicus [5] worked out at 2. For the same compound, the level, % of control at 3 mg/kg in the assay with Rattus norvegicus [6] is 0.7%. For the same compound, the viability at 30 µM in assay [8] worked out at 86.6%.

For `Cc1ccc(C(=O)c2cc(O)c(O)c([N+](=O)[O-])c2)cc1` [TOLCAPONE], the inhibition result with Rattus norvegicus [13], in the assay on Rattus norvegicus [17], with Rattus norvegicus [20], in the assay on Rattus norvegicus [23] and in the assay with Rattus norvegicus [12] was “Active” each time. For the same compound, the inhibition in vivo at 3 mg/kg in the assay with Rattus norvegicus [14] and in the assay with Rattus norvegicus [24] was 50% each time. Also, the fold change (FC) in the assay on Rattus norvegicus [15] came to 2; with Rattus norvegicus [5], 3. The level, % of control at 3 mg/kg turned out to be 15.1% in the assay with Mus musculus [16] and 23.8% in the assay on Rattus norvegicus [6]. Moreover, the 50% effective dose (ED50) in the assay on Rattus norvegicus [4] stood at 1.77 mg/kg. In addition, the inhibition entry with Rattus norvegicus [18], in the assay with Rattus norvegicus [19] and in the assay listed under Rattus norvegicus [22] was “inactive” in each case. Besides, the level, % of control at 30 mg/kg in the assay on Mus musculus [21] was found to be 6.8%. Also, the viability at 30 µM in [8] came to 27.2%. Moreover, the outcome in the assay on Rattus norvegicus [11] was Active.
